Drawing on ChEMBL document CHEMBL1201862, “PubChem BioAssay data set” (2004), this text covers IC50 and AC50 for seven compounds.

The source made the active and inactive calls.

Assay [1] is described as follows: cells.
The target in assay [2] is Major prion protein (Homo sapiens, UniProt P04156). The format is functional, cell-based.
For assay [3], the target named is T1, Tyrosyl-DNA phosphodiesterase 2 (Homo sapiens, UniProt O95551).
T1 sequence (O95551 whole entry): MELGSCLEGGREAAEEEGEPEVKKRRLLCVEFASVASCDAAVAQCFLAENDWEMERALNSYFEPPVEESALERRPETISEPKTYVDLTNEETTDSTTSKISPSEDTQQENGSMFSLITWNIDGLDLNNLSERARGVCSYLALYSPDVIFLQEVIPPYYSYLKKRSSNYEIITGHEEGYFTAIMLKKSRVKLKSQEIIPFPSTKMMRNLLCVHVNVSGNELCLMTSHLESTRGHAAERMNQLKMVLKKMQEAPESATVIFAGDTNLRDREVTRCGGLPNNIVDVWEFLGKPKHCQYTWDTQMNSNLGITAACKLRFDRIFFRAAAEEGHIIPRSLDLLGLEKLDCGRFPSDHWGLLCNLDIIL
The assay can be described thus: potency against TDP2 phosphodiesterase activity – biochemical, epi absorbance, IC50, dose response (AID 743297).

Assay [4] deals with T2, Caspase-6 (Homo sapiens, UniProt P55212).
T2 sequence (P55212 whole entry): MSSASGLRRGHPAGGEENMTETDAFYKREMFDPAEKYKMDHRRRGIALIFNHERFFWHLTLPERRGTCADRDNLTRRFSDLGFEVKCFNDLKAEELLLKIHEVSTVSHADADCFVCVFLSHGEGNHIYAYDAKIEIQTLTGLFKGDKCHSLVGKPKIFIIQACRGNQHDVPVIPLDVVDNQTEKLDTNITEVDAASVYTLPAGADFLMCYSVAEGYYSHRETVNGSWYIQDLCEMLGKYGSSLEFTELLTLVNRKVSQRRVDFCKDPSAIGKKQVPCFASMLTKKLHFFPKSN
The assay can be described thus: inhibition of CASP6 peptide cleavage – biochemical, VEID-R110 fluorescence, cherry-pick, dose response (AID 720632).

Assay [5] deals with T3, Histone-lysine N-methyltransferase NSD2 (Homo sapiens, UniProt O96028).
T3 sequence (O96028 whole entry): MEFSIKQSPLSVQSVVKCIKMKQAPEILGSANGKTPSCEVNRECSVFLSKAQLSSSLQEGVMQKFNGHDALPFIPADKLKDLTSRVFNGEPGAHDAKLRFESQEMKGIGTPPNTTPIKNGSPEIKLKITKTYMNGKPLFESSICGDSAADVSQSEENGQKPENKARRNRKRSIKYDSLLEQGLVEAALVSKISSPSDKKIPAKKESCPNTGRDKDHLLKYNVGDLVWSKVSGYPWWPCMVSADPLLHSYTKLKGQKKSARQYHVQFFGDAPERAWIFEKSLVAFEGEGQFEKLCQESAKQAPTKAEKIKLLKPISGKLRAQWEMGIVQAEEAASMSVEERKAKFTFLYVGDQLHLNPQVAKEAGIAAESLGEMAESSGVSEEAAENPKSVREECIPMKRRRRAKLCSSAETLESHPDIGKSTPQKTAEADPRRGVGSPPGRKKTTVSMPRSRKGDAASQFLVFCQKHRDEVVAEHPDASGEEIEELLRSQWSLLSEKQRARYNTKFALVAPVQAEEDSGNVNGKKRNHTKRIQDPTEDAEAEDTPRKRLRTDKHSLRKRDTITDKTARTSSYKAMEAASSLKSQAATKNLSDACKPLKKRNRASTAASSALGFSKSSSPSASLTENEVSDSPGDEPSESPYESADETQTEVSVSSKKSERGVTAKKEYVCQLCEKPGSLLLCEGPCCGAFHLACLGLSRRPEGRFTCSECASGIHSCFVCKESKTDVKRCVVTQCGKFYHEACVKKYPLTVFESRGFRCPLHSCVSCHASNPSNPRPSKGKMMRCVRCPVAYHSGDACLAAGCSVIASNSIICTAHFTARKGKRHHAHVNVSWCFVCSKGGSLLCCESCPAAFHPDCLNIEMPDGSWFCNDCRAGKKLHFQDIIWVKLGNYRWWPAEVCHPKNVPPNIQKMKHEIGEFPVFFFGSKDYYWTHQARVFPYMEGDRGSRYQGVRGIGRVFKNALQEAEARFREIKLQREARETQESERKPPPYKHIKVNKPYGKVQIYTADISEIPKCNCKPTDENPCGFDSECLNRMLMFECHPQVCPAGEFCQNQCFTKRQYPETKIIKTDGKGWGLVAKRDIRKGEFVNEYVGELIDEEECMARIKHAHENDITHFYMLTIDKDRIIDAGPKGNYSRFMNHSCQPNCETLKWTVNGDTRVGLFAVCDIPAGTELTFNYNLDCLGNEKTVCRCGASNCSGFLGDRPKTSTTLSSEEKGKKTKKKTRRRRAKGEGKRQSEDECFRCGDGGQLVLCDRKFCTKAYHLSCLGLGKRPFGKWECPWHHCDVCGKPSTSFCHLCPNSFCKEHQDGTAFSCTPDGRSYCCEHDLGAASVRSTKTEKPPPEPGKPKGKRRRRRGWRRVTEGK
The format is biochemical.

Assay [6] in a line: A2780 cell killing – plate reader, dry powder samples, cytotoxicity control, dose response (AID 743046). Format: functional, cell-based.
A short description of assay [7]: OVCAR-3 cell viability loss – plate reader, dry powder samples, PAX8 inhibitor project, dose response (AID 743044). Format: functional, cell-based.
A short description of assay [8]: IGROV1 cell killing – plate reader, dry powder samples, PAX8 inhibitor project, dose response (AID 743043). The format is functional, cell-based. The settings on record: IGROV-1.
Assay [9] can be described thus: OVCAR8 cell viability loss – plate reader, dry powder samples, PAX8 project, dose response (AID 743197). The format is functional, cell-based. The settings on record: OVCAR-8.
In assay [10] the target is Paired box protein Pax-8 (Homo sapiens, UniProt Q06710). The assay can be described thus: PAX8 transcriptional activity inhibition in RMG-I – RMG-I cells, luciferase, cherry-pick, dose response (AID 687027).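 Also: luciferase reporter driven by Pax8 target thyroperoxidase promoter measured by SteadyGlo luminescence.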 Format: functional, cell-based.
The target of assay [11] is T4, 1-phosphatidylinositol 4,5-bisphosphate phosphodiesterase beta-3 (Homo sapiens, UniProt Q01970).
T4 sequence (Q01970 whole entry): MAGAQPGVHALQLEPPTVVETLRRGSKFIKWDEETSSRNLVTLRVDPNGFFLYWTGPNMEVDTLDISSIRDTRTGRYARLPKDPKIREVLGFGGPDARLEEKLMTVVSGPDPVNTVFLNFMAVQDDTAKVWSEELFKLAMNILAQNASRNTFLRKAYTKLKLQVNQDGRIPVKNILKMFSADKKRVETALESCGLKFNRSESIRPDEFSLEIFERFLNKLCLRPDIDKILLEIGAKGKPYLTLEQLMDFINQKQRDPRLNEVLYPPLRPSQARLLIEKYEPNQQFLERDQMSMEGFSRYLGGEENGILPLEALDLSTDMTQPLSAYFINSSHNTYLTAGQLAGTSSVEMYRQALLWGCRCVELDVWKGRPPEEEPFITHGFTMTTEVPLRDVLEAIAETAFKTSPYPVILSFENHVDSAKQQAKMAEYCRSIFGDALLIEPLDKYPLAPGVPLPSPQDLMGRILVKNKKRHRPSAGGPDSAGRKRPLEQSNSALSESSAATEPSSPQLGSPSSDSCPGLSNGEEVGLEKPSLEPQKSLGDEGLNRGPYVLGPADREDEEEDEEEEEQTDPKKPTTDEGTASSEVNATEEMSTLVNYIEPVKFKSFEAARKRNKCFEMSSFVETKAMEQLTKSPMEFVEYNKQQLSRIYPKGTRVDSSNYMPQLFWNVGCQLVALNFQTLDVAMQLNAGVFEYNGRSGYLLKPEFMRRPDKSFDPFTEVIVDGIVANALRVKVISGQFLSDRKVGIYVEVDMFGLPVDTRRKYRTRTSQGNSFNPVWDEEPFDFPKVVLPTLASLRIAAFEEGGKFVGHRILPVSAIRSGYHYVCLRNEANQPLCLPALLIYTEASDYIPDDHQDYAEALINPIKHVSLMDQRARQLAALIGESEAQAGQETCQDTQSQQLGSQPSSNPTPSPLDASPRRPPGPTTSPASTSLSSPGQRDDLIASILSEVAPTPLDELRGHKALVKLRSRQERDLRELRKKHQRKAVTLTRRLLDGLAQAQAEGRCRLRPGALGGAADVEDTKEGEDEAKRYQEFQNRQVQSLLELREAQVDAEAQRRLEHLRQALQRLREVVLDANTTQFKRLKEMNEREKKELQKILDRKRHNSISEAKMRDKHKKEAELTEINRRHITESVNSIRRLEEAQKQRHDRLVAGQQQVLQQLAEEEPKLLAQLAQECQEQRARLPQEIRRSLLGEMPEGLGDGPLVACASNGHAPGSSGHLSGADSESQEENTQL
The assay can be described thus: Fluorescence-based biochemical high throughput dose response assay to identify inhibitors of phospholipase C isozymes (PLC-B3).

In assay [12] the target is T5, 1-phosphatidylinositol 4,5-bisphosphate phosphodiesterase gamma-1 (Homo sapiens, UniProt P19174).
T5 sequence (P19174 whole entry): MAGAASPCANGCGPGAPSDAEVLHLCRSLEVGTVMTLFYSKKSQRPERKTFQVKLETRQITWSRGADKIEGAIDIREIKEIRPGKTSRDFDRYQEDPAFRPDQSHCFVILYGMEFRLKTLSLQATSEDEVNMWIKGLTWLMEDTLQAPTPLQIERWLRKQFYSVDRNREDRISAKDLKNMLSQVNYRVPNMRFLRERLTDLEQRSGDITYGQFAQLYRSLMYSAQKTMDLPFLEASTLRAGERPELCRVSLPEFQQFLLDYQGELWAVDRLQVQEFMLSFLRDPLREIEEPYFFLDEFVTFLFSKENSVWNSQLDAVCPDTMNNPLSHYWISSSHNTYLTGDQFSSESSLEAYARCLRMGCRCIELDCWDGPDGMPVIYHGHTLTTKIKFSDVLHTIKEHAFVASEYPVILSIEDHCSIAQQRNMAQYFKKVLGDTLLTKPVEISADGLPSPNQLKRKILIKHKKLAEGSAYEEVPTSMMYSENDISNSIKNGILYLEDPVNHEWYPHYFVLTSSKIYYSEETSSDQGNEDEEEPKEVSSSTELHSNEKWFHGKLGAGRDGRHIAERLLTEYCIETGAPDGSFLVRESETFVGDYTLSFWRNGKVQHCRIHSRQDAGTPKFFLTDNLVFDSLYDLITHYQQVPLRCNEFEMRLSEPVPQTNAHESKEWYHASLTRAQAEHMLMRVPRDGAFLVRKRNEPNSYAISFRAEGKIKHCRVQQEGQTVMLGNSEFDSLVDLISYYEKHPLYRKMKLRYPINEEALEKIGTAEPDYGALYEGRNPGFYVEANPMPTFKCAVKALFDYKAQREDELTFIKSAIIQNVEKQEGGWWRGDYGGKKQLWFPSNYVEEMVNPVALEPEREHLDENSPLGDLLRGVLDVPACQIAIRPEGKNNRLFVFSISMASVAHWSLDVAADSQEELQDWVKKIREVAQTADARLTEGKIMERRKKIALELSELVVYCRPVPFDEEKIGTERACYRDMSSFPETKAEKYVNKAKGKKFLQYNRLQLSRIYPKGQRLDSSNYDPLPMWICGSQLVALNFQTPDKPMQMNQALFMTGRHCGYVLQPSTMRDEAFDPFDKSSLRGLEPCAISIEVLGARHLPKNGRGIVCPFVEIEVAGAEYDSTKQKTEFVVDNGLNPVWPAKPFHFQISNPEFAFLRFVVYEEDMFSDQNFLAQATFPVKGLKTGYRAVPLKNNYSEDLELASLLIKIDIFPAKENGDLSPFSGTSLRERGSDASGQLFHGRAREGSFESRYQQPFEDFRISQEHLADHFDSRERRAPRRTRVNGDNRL
In words: Counterscreen for inhibitors of phospholipase C isozymes (PLC-B3): Fluorescence-based biochemical high throughput dose response assay to identify inhibitors of phospholipase C isozymes (PLC-gamma1).

Consider `CC(C)(C)C(=O)NNC(=O)COc1ccc2ccccc2c1Br`, for which the IC50 was > 138 µM (inactive) in assay [1] and 4.91 µM (active) in [2].

Consider `COc1cc(N)c2ncccc2c1Br`, for which the IC50 in assay [3] was > 128 µM (inactive). Besides, the values for the AC50 in assay [4] and in assay [5] were 10 µM (active) and 13.1 µM (active), respectively.

As to `COc1ccccc1Cn1c(=S)[nH]c2ccc(F)cc2c1=O`, the IC50 was > 138 µM (inactive) in [1] and 0.412 µM (active) in assay [2].

Consider `C[C@@H]1CCCCO[C@H](CN(C)Cc2ccc(Cl)c(Cl)c2)[C@@H](C)CN([C@@H](C)CO)C(=O)c2cc(NC(=O)Nc3ccc(F)cc3)ccc2O1`, for which the AC50 in [6] is 63.6 µM (active); in [7], 51.3 µM (active); in assay [8] it was 29.6 µM (active); in assay [9] it was > 70 µM (inactive); in assay [10], 6.33 µM (active).

For the compound `COc1ccccc1-c1cc(C(=O)Nc2ccc(F)cc2F)no1`, the IC50 in assay [11] and in assay [12] was > 122 µM (inactive) each time.

For `O=C(CCc1ccccc1)N[C@H]1[C@@H](OC(=O)c2cnccn2)CCC[C@@]12C(=O)N(Cc1ccccc1)c1ccccc12`, the IC50 in assay [11] and in assay [12] was > 122 µM (inactive) throughout.

Take `CO[C@H]1CN(C)C(=O)c2cc(NC(C)=O)ccc2OC[C@@H](C)N(C(=O)CC2CC2)C[C@H]1C`: in assay [4], the AC50 is 12.1 µM (active).
